How the values were obtained:
Colo205 = assay: MTT cytotoxicity assay, Colo205; assay type: cell-based; settings: Homo sapiens, COLO 205, 72 h of exposure
Protocol: (§1) The in vitro cytotoxicity of the TSCs HL^1–HL^3, copper(II) complexes Cu(HL^1)Cl2, [Cu(L^2)Cl], and Cu(HL^3)Cl2, and oxidized TSCs HL^1a′, HL^1a″, and HL^2c′·CH3COOH was tested in the doxorubicin-sensitive Colo205 and the multidrug-resistant Colo320 human colonic adenocarcinoma cell lines as well as in normal human embryonal lung fibroblast cells (MRC-5) by the colorimetric MTT assay. […]
(§2) 2.5. In vitro cell studies
(§3) 2.5.1. Cell lines and culture conditions
(§4) All cell culture reagents were obtained from Sigma-Aldrich and plastic ware from Sarstedt
(§5) (Germany). Doxorubicin-sensitive human colonic Colo 205 and multidrug resistant
(§6) Colo 320/MDR-LRP adenocarcinoma cell lines were purchased from LGC Promochem,
(§7) Teddington, UK. The cells were cultured in Roswell Park Memorial Institute (RPMI) 1640
(§8) medium supplemented with 10% heat-inactivated fetal bovine serum, 2 mM L-glutamine, 1 mM
(§9) Na-pyruvate and 100 mM Hepes. The cell lines were incubated at 37°C, in a 5% CO2, 95% air
(§10) MRC-5 human embryonal lung fibroblast cell line (ATCC CCL-171) was purchased from LGC
(§11) Promochem, Teddington, UK. The cell line was cultured in Eagle’s Minimal Essential Medi um
(§12) (EMEM, containing 4.5 g/L glucose) supplemented with a non-essential amino acid mixture, a
(§13) selection of vitamins and 10% heat-inactivated fetal bovine serum. The cells were incubated at
(§14) 37°C, in a 5% CO2, 95% air atmosphere. All cell lines were detached with Trypsin-Versene
(§15) (EDTA) solution for 5 min at 37 °C.
(§16) The tested compounds were dissolved in DMSO using 10 mM concentration. Then stock solutions
(§17) were diluted in complete culture medium in 96-well microtiter plates, and two-fold serial dilutions
(§18) of compounds were prepared in 100 µL of RPMI 1640, horizontally. The semi-adherent colonic
(§19) adenocarcinoma cells were treated with Trypsin -Versene (EDTA) solution. They were adjusted to
(§20) a density of 1×10^4 cells in 100 µL of RPMI 1640 medium, and were added to each well, with the
(§21) exception of the medium control wells. The final volume of the wells containing compounds and
(§22) cells was 200 µL. The culture were incubated at 37 °C for 72 h; at the end of the incubation period,
(§23) 20 µL of MTT solution (from a stock solution of 5 mg/mL) were added to each well. After
(§24) incubation at 37 °C for 4 h, 100 µL of SDS solution (10% in 0.01 M HCI) were added to each well
(§25) and the plates were further incubated at 37 °C overnight. The cell growth was determined using
(§26) both methods by measuring the optical density (OD) at 450 nm (ref. 620 nm) with a Multiscan EX
(§27) ELISA reader. Inhibition of the cell growth (expressed as IC 50: inhibitory concentration that
(§28) reduces by 50% the growth of the cells exposed to the tested compounds) was determined from
(§29) the sigmoid curve where 100 – ((ODsample ‒ ODmedium control)/(ODcell control ‒ ODmedium control)) × 100
(§30) values were plotted against the logarithm of compound concentrations. […]
(§31) 0.76 tyrosyl radical/polypeptide. Samples containing 20 µM mR2 in 50 mM HEPES buffer, pH
(§32) 7.50/100 mM NaCl, and 20 µM respective compound in 1% (v/v) DMSO/H2O, and 2 mM

Colo320 = assay: MTT cytotoxicity assay, Colo320; assay type: cell-based; settings: Homo sapiens, COLO 320, 72 h of exposure
Protocol: as §1, §2, §3, §4, §5, §6, §7, §8, §9, §10, §11, §12, §13, §14, §15, §16, §17, §18, §19, §20, §21, §22, §23, §24, §25, §26, §27, §28, §29, §30, §31, §32

MRC-5 = assay: MTT cytotoxicity assay, MRC-5; assay type: cell-based; settings: Homo sapiens, MRC5, 72 h of exposure
Protocol: as §2, §3
All cell culture reagents were obtained from Sigma-Aldrich and plastic ware from Sarstedt […]
as §10, §11, §12, §13, §14, §15, §16, §17, §18, §19, §20, §21, §22, §23, §24, §25, §26, §27, §28, §29, §30

mouse R2 RNR protein = biological target: T1, mouse R2 RNR protein (Mus musculus, UniProt P11157); assay: Tyrosyl radical reduction in mouse R2 RNR protein (EPR); assay type: biochemical; settings: 20 μM compound; for effect on the tyrosyl radical in the absence of DTT: no DTT
T1 construct: made in house
T1 sequence (P11157 1-390): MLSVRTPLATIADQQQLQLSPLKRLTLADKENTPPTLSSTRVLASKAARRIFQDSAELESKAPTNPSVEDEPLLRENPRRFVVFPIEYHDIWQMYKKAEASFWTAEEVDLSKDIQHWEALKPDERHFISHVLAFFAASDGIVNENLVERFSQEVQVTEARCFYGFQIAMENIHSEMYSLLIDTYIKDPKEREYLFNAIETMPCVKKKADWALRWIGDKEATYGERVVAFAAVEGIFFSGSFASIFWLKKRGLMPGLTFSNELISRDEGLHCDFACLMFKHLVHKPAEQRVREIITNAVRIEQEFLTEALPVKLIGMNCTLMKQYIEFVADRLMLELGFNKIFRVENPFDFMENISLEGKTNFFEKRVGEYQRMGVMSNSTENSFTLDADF
Protocol: The time-dependent tyrosyl radical reduction in mR2 RNR by equimolar concentrations of TSCs and their respective copper(II) complexes, under reducing conditions, is shown in Figure 15. […] The favorable impact of the copper(II) coordination on the HL^2 inhibitory activity is quite obvious, when the ability to quench the tyrosyl radical by HL^2 is compared to that of 2′.
The samples contained 20 μM mR2 in 50 mM HEPES buffer, pH 7.60/100 mM KCl, 20 μM compound in 1% (v/v) DMSO/H2O, and 2 mM DTT. […]
2.6. Tyrosyl radical reduction in mouse R2 RNR protein
The tyrosyl radical reduction in mR2 protein by HL1, HL2, HL3, Cu(HL1)Cl2, [Cu(L2)Cl],
Cu(HL3)Cl2, HL1a’, HL1a’’, and HL2c´·CH3COOH was measured by EPR spectroscopy at 30 K,
on a Bruker Elexsys II E540 EPR spectrometer with an Oxford Instruments ER 4112HV helium
cryostat, as described previously.12,13 mR2 protein was expressed, purified, and iron -reconstituted
as described previously, 14 and passed through a 5 mL HiTrap desalting column (GE Healthcare)
as §31, §32
dithiothreitol (DTT) were incubated for indicated times and quickly frozen in cold isopentane. The
same samples were used for repeated incubations at room temperature. […]
Furthermore, the intrinsic reaction coordinate (IRC) analysis was
performed to authenticate that the transition state pertains to the desired reaction coordinate. The
IRC calculations were done at the B3LYP/6-311++G(d,p) level of theory. Molecular orbitals were
drawn using Molekel software.17
3. Schemes for assignment of resonances in HL1 – HL3 and their isomers
Scheme S1. The atom numbering for the assignment of resonances in HL1 – HL3.
(1 picture or pasted object on this page, not shown here)

[1] = parameters: method as in earlier work; settings: cited from earlier work
SW480 cells = assay: Cell cycle distribution by flow cytometry; assay type: cell-based, human; settings: 0.01 μM; 24 h
Description: […] TEXT PRINTED IN THE PICTURE: (A) no label printed: S: 27.7% | (B) no label printed: S: 33.8% | (C) no label printed: S: 44.0% | (D) no label printed: S: 46.5% DOUBTS OF THE COPYIST ABOUT THIS PICTURE: No substance labels are printed in the picture, only the panel letters A-D. / The phase label "S" is printed only in panel A. Applying it to the percentages in panels B, C and D is assumed from where the marker line sits.

[2] = system: SW480, MES-SA, MES-SA/Dx5, HL60, 41M, SK-BR-3; parameters: method as in PMID 32336116, PMID 22189939, PMID 31250199; settings: several human cancer cells; ref [36],[58],[80]; read-out: IC50 values reported; cited from earlier work
[3] = ref [67]; cited from earlier work

Structure (SMILES)	IC50 (Colo205)	IC50 (Colo320)	IC50 (MRC-5)	effect on the tyrosyl radical content in the presence of DTT (mouse R2 RNR protein; 2 mM DTT)	effect on the tyrosyl radical in the absence of DTT (mouse R2 RNR protein)	also measured
CC1=CC(=Nc2nnc(-c3ccccn3)s2)C=C(C)C1=O [HL^1a″]	> 25 µM	> 25 µM	> 25 µM	cause an increase in the radical content	do not have an effect	–
CC(=NNc1nc2cc(C)c(O)c(C)c2s1)c1ccccn1 [HL^2c′·CH3COOH]	2.73 ± 0.059 µM	0.188 ± 0.041 µM	2.15 ± 0.1 µM	–	–	tyrosyl radical reduction (comparison in words) (mouse R2 RNR protein; 2 mM DTT): as potent as HL^3
Cc1cc(Nc2nnc(-c3ccccn3)s2)cc(C)c1O [HL^1a′]	> 25 µM	> 25 µM	> 25 µM	cause an increase in the radical content	do not have an effect	–
NC(=O)NO [hydroxyurea]	–	–	–	–	–	redox potential [1]: +0.724 V
Nc1ccn([C@@H]2O[C@H](CO)[C@@H](O)C2(F)F)c(=O)n1 [Gemcitabine, reference compound]	–	–	–	–	–	G1 phase cells (SW480 cells): 26.8%; S phase cells (SW480 cells): 62.3%
C/C(=N\NC(N)=S)c1ccccn1 [AcTSC, 2-acetylpyridine TSC]	–	–	–	–	–	IC50 [2]: 2.5 to 3.6 µM; log D7.4 [3]: +1.02
